Test results reported in publication PMC2765639 (PLoS Neglected Tropical Diseases, 2009).
Like-named read-outs stand apart in the source and are kept apart here.

Legend:
[1] = test system: L. major axenic amastigote-like population; experiment: L. major axenic amastigote-like alamar blue assay (pH 4.9); format: cell-based, Leishmania major; conditions: for EC50: Leishmania major
IMR-90 = experiment: Mammalian cell line specificity assay (alamar blue); format: cell-based, human; conditions: Homo sapiens
Protocol: (§1) Mammalian cells were cultured and maintained according to ATCC specifications (ATCC, Manassas, VA). Cell line drug susceptibility assays were performed in final volumes of 25 µL using our previously described 384-well microtiter plate format,[39]. […] Test and control compounds were added to individual wells as described above. Vehicle and positive controls were 1% DMSO and 10% DMSO, respectively (final well concentrations). Assay plates were incubated for 44–46 h at 37°C in the presence of 5% CO2 and growth inhibitory effects were determined as described above. Five µL of alamar blue reagent was added to each well and incubated for 2–4 h. Data were captured as described above.

A549 = experiment: as above; format: cell-based, human; conditions: Homo sapiens
Protocol: as §1

MDA-MB-231 = experiment: as above; format: cell-based, human; conditions: Homo sapiens
Protocol: as §1

HeLa = experiment: as above; format: cell-based, human; conditions: Homo sapiens, HeLa, read-out: HeLa EC50 (AVE±SD)
Protocol: as §1

PC-3 = experiment: as above; format: cell-based, human; conditions: Homo sapiens
Protocol: as §1

human cell lines = experiment: Human cell line panel (A549, HeLa, IMR-90, PC-3, MDA-MB-231); format: cell-based
Protocol: Mammalian cells were cultured and maintained according to ATCC specifications (ATCC, Manassas, VA). Cell line drug susceptibility assays were performed in final volumes of 25 µL using our previously described 384-well microtiter plate format,[39]. Briefly, for automated HTS procedures, cells (A549, IMR-90 and, HeLa, 1,000 cells; PC-3, 750 cells and; MDA-MB-231, 3,000 cells) in complete culture medium were seeded into each well of 384-well microtiter plates using a Titertek MAPC-2 bulk dispenser. Test and control compounds were added to individual wells as described above. Vehicle and positive controls were 1% DMSO and 10% DMSO, respectively (final well concentrations). Assay plates were incubated for 44–46 h at 37°C in the presence of 5% CO2 and growth inhibitory effects were determined as described above. Five µL of alamar blue reagent was added to each well and incubated for 2–4 h. Data were captured as described above.

L. major promastigotes [2] = experiment: Flow cytometer-based growth inhibition and cytotoxicity assay; conditions: Leishmania major, 48 h, read-out: L. major promastigote EC50 (AVE±SD) Confirmation Flow Cytometry
L. major promastigotes [3] = experiment: L. major promastigote drug susceptibility assay (alamar blue, 384-well); format: cell-based, Leishmania major; conditions: Leishmania major
Protocol: Promastigotes were grown in vented T75 tissue culture flasks and maintained at 28°C. Promastigote cultures were initiated at 10^5 parasites per mL and subcultured every 3–4 days. L. major promastigote counts were performed in duplicate using a hemocytometer and particle counter (Beckman Coulter, Fullerton, CA). For HTS assays, L. major promastigote cultures were harvested during exponential growth phase (∼2.0–3.0×10^7 parasites/mL) and were not maintained past passage 20.
The final test compound concentration was 10 µM with a constant DMSO concentration of 1% in each assay well.
The L. major promastigote drug susceptibility assay was performed in a final volume of 25 µL using our previously described 384-well microtiter plate format,[39]. For automated HTS procedures, L. major promastigotes (5,000 parasites/22 µL) in complete growth medium were seeded into each well of the microtiter plates using a MAPC2 bulk dispenser (Titertek, Huntsville, AL). Test and control compounds (3 µL) were added to individual wells using a Velocity 11 V-prep (Menlo Park, CA) liquid handling system, equipped with a 384-well dispensing head, followed by centrifugation at 50 g for 1 min. […] Assay plates were allowed to incubate for 44 h at 28°C in the presence of 5% CO2. Five µL of alamar blue reagent were added to each assay plate well and incubated for 4 h at 28°C with 5% CO2. Data were captured on a Molecular Devices SpectraMax M5 (excitation560; emission590). Individual assay plate Z-factors were derived from the vehicle and positive controls, and data from plates were used only if Z-factors were >0.5 [50].
The assays were performed in duplicate with a final 10-point concentration range spanning 0.01–5.00 µM.

L. major = experiment: In vivo murine CL efficacy study (footpad lesion model); design: species or system Balb/c mice; conditions: for decrease in footpad thickness: 40 mg/kg; for reduction in footpad thickness: 160 mg/kg, vs vehicle
Protocol: Adult female Balb/c mice (6 to 10 week old) were obtained from (Charles River Laboratories, Wilmington, MA) and maintained as outlined by the National Institutes of Health Guide for the Care and Use of Laboratory Animals. All in vivo studies were carried out in accordance with protocols approved by the Institutional Animal Care and Use Committee (IACUC) at the University of Miami (IACUC number C01-08). Food and water were supplied ad libitum. […] Animals were examined daily to determine lesion development. […] Control mice were injected with an equivalent amount of vehicle control or amphotericin B (12.5 mg/kg). […] Mice were euthanized in a CO2 chamber at day 21.

[4] = pH 4.9, 144 h, 32°C, read-out: L. major axenic amastigote-like EC50 (AVE±SD) Confirmation Alamar Blue
[5] = IMR-90, 44–46 h, alamar blue, read-out: IMR90 EC50 (AVE±SD)
[6] = A549, 44–46 h, alamar blue, read-out: A549 EC50 (AVE±SD)
[7] = A549, Table S1, PMLSC library samples, read-out: EC50 Ave ± SD, A549
[8] = MDA-MB-231, 44–46 h, alamar blue, read-out: MDA EC50 (AVE±SD)
[9] = PC-3, 44–46 h, alamar blue, read-out: PC-3 EC50 (AVE±SD)
[10] = 48 h, compounds from commercial supplier, 44 h + 4 h alamar blue, 28°C, read-out: L. major promastigote EC50 (AVE±SD) Confirmation Alamar Blue
[11] = Table S1, PMLSC library samples, 10-point 0.01–5.00 µM, read-out: EC50 Ave ± SD, Lm

| SMILES | EC50 [1, 4] [nM] | EC50 (IMR-90; [5]) [nM] | EC50 (A549; [6]) [nM] | EC50 (A549; [7]) [nM] | EC50 (MDA-MB-231; [8]) [nM] | EC50 (HeLa; 44–46 h, alamar blue) [nM] | EC50 (PC-3; [9]) [nM] | growth inhibition of human cell lines tested (human cell lines) | EC50 (L. major promastigotes [2]) [nM] | EC50 (L. major promastigotes [3]; [10]) [nM] | EC50 (L. major promastigotes [3]; [11]) [nM] | also measured |
| --- | --- | --- | --- | --- | --- | --- | --- | --- | --- | --- | --- | --- |
| N[C@H](C(=O)O)[C@@H]1CC(Cl)=NO1 [Acivicin, reference compound] | 1100 ± 60 | 6700 ± 400 | 4400 ± 400 | > 5000 | > 50000 | 3900 ± 3000 | > 50000 | inhibited the growth of human cell lines tested | 40 ± 10 | 6 ± 1 | 177 ± 3 | – |
| C[C@@H]1[C@H](O)[C@@H](C)/C=C/C=C/C=C/C=C/C=C/C=C/C=C/[C@H](O[C@@H]2O[C@H](C)[C@@H](O)[C@H](N)[C@@H]2O)C[C@@H]2O[C@](O)(C[C@@H](O)C[C@@H](O)[C@H](O)CC[C@@H](O)C[C@@H](O)CC(=O)O[C@H]1C)C[C@H](O)[C@H]2C(=O)O [Amphotericin B, reference compound] | 380 ± 10 | 8700 ± 2400 | > 50000 | – | > 50000 | > 50000 | > 50000 | – | 190 ± 60 | 210 ± 10 | – | reduction in footpad swelling (in vivo effects, summary) (L. major; summary statement in results/discussion): 85–90%; EC50 (L. major promastigotes [3]; assay optimization, read-out: EC50, L. major promastigotes, 384-well format): 207 ± 11 nM |
| CCN(CC)C(=S)SSC(=S)N(CC)CC [Disulfiram] | 130 ± 10 | > 50000 | > 50000 | 2160 ± 1220 | > 50000 | > 50000 | > 50000 | – | 190 ± 60 | 500 ± 50 | 263 ± 20 | growth inhibitory activity in axenic amastigote-like assay ([1]; pH 4.9): comparable to amphotericin B; decrease in footpad thickness (L. major; day 14): 25%; decrease in footpad thickness (L. major; day 21): 35%; reduction in footpad thickness (L. major; day 14 post-infection): ~43%; reduction in footpad thickness (L. major; day 21 post-infection): 50% |
| NC(=O)c1cn([C@@H]2O[C@H](CO)[C@@H](O)[C@H]2O)c2ncnc(N)c12 [Sangivamycin, reference compound] | – | – | – | – | – | – | – | inhibited the growth of human cell lines tested | 140 ± 20 | – | – | EC50 ([1]; 144 h, pH 4.9, read-out: L. major axenic amastigote-like EC50 (AVE±SD) Confirmation Alamar Blue): 4300 ± 300 nM; EC50 (IMR-90; IMR-90, read-out: IMR90 EC50 (AVE±SD)): > 50000 nM; EC50 (A549; A549, read-out: A549 EC50 (AVE±SD)): 70 ± 20 nM; EC50 (A549; A549, read-out: EC50 Ave ± SD, A549): 72 ± 5 nM; EC50 (MDA-MB-231; MDA-MB-231, read-out: MDA EC50 (AVE±SD)): > 50000 nM; EC50 (HeLa): > 50000 nM; EC50 (PC-3; PC-3, read-out: PC-3 EC50 (AVE±SD)): > 50000 nM; EC50 (L. major promastigotes [3]; read-out: EC50 Ave ± SD, Lm): 164 ± 11 nM |
